Experimental data reported in paper PMC4544722 (Drug Design, Development and Therapy, 2015).

Test: everted gut sac model in vitro
Details: jejunum, ECH 0.09 mg/mL; verapamil 0.2 mg/mL, borneol 0.1 mg/mL, pennyroyal 0.1 mL/mL, clove oil 0.1 mL/mL

In the case of `CC1(C)C2CCC1(C)C(O)C2` (stereo not shown) [borneol], the “effect on ECH absorption parameters F and Papp versus control” value is reported as “neither borneol nor pennyroyal had significant absorption enhancing effect”.
